Source: publication PMC11435393, “Novel Pyrrole Derivatives as Multi-Target Agents for the Treatment of Alzheimer’s Disease: Microwave-Assisted Synthesis, In Silico Studies and Biological Evaluation” (Pharmaceuticals, 2024)
Values joined by “and” are separate entries in the source; they are usually repeats but may differ in a detail not shown here. Equal entries are not always repeated. Structures can show the parent of a compound that is named as a salt.

Key:
human recombinant MAOB = biological target: T1, human recombinant MAOB (Homo sapiens, UniProt P27338); experiment: biochemical; format: biochemical; details: for IC50: mean ± SD, 2 h exposure, read-out: IC50 (EC50) hMAOB; for hMAOB inhibition (decrease of hMAOB activity vs control): 1 μM
T1 sequence (P27338 1-520): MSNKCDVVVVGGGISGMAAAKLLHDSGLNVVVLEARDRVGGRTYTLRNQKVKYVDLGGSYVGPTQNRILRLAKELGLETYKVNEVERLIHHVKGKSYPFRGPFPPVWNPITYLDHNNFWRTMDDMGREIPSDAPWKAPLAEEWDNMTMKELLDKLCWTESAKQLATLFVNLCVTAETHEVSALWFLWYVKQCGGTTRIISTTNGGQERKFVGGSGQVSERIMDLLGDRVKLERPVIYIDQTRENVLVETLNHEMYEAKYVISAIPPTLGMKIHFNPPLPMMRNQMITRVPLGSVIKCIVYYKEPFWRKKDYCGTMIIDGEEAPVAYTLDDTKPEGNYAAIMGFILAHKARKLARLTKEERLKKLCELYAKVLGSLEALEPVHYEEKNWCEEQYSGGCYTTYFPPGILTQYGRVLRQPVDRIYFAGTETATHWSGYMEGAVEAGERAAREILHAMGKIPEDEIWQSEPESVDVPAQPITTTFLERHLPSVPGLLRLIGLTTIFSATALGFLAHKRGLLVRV
Protocol: The title compounds were tested for hMAOB activities by an in vitro method.
(§1) The examined compounds were evaluated for possible inhibitory capacity on human recombinant MAOA and MAOB enzymes by using the Amplex UltraRed (Sigma Aldrih and Acros, Merck KGaA, Darmstadt, Germany) reagent with some modifications. All reagents were prepared in accordance with the producer’s instructions. As a substrate the tyramine hydrochloride was used for hMAO-B and p-benzylamine for hMAO-A. The reaction mixture included a stock solution of Amplex Red, the reaction buffer at pH 7.4 and the storage solution of horseradish peroxidase (10 U/mL). Five concentrations of the exam compounds were applied. The combination: compounds + hMAOA/B was placed in a 96-well plate, and then the plate was incubated for 30 min (dark, at 37 °C). The reaction was started by the addition of 50 μL of the mix solution: Amplex Red, horseradish peroxidase, and tyramine/p-benzylamine, as an enzyme substrate, in the reaction buffer. The fluorescence was measured every 30 min until 150 min, in dark, while shaking the reaction mixture at constant temperature of 37 °C. The fluorimetric measurements were assessed using a Synergy 2 Microplate Reader (BioTek, Winooski, VT, USA).
(§2) The in vitro results (MAO-A, MAO-B and AChE inhibitory capacities) were expressed as a mean ± SD (n = 3). Values of p < 0.05 were considered statistically significant.

human recombinant MAOA = biological target: T2, human recombinant MAOA (Homo sapiens, UniProt P21397); experiment: hMAOA enzyme assay (Amplex UltraRed, fluorimetric); format: biochemical; details: mean ± SD; read-out: IC50 (EC50) hMAOA
T2 sequence (P21397 1-527): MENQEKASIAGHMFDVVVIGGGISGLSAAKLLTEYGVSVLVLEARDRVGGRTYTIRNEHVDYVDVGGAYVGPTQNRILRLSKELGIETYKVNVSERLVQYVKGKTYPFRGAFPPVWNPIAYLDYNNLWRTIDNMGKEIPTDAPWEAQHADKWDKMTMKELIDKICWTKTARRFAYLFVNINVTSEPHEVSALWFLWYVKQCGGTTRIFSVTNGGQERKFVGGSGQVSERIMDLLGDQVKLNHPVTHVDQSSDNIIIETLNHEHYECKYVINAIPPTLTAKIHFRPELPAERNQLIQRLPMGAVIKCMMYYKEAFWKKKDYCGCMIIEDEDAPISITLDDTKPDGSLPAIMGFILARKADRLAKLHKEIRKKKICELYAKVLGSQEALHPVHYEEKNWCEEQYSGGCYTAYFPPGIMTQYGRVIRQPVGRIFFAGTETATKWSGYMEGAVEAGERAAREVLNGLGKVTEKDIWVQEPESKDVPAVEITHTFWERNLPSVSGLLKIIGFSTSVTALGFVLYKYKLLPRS
Protocol: To observe the selectivity index of the title compounds, in vitro tests against MAO-A were carried out. The novel molecules were tested in the same concentrations as applied in the MAO-B evaluations—1 μM.
as §1, §2

eeAChE = eeAChE (Electrophorus electricus, UniProt O42275); experiment: biochemical; details: for IC50 (EC50) AChE / IC50: mean ± SD; for IC50: read-out: IC50 (EC50) AChE; for AChE inhibition / inhibition at 10 µM: 10 μM; for inhibition at 10 µM: read-out: AChE inhibition
Sequence of eeAChE (O42275 24-633): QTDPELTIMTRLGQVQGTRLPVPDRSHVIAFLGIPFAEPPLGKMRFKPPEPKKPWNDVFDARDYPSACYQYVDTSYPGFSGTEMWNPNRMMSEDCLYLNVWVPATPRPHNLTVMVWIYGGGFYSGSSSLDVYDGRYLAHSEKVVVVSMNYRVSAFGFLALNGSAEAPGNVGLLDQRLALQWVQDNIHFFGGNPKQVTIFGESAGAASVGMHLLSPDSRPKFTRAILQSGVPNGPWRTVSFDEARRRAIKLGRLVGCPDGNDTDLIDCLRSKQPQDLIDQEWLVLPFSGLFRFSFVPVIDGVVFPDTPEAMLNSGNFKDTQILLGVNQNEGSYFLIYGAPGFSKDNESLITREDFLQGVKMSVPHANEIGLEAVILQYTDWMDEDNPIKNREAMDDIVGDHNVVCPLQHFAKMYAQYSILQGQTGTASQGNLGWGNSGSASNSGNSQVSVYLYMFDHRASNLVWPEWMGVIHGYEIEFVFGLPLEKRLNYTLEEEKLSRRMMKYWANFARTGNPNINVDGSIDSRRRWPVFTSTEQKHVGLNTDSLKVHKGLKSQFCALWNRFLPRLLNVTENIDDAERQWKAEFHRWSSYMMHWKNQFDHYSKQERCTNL
Protocol: The AChE potentials of the new valine-based molecules were evaluated according to a modified Ellman’s method. Initially, stock solutions (1 mg/mL) of the new structures were diluted in DMSO and five solutions were prepared by dilutions in order to access the inhibitory potential in different concentrations. Thereafter, the pyrrole-based molecules were incubated with sodium phosphate buffer, and AChE solution for ten minutes at 37 °C. The reaction was started by the addition of 5,5-dithio-bis-(2-nitrobenzoic acid) (DTNB) (10 mM; 20 μL) and acetylthiocholine iodide (14 mM; 20 μL). […] The percent inhibition activity was measured against the blank probe. Donepezil was utilized as a standart acetylcholinesterase inhibitor. The results were expressed as a mean ± SD (n = 3). Values of p < 0.05 were observed as statistically significant.
as §2

[1] = ABTS radical scavenging assay; details: 1 mg/mL, 734 nm
Protocol: The radical scavenging properties of the newly synthesized structures were also calculated with the help of a ABTS test according to a modified method of Arnao et al.. The tests were conducted in methanol at room temperature. The absorbance of the solutions was measured at λ = 734 nm. The stable ABTS radical was produced by mixing 7 mmol/L solution of ABTS and 2.4 mmol/L solution of potassium persulphate, which were allowed to react for 14 h in the dark at room temperature. The working solutions were made of 2 mL of the stock solution diluted in 50 mL of methanol with an absorbance of 0.30 ± 0.04 units at […]. In total, 1 mL of the ABTS working solution was allowed to react with the pyrrole derivatives with concentrations of 1 mg/mL for 10 min. The inhibition percentage was calculated by applying the same formula as the DPPH assay.

[2] = PAMPA-BBB permeability test
Protocol: Thus, the passive diffusion of vh0 was evaluated using an in vitro permeability test.
The in vitro Parallel Artificial Permeability Assay—blood brain barrier (PAMPA-BBB) test was carried out by PAMPA Permeability Analyzer (pIONInc, Billerica, MA, USA). The permeabilities (Pe) of the dual-acting pyrrole-based hydrazide—vh0, were evaluated considering the manufacturer BBB Protocol. Initially, the stock solutions of vh0 and reference molecules were dissolved in DMSO and diluted with Prisma HT buffer pH 7.4 (Pion Inc. Billerica, MA, USA) to reach a concentration of 50 μM. The well plates were filled with 200 µL BSB (Brain Skin Buffer). The incubation was established for 4 h at 25 °C with no stirring. The permeability of the structures was evaluated by accessing their concentrations in both the donor and acceptor phases spectrophotometrically. The permeability coefficients were calculated by PAMPA Explorer Command Software and presented as –logPe.

[3] = cited from earlier work
[4] = DPPH radical scavenging assay; details: 1 mg/mL, 517 nm
Protocol: The test observes the hydrogen donating capacity of the molecules which is shown with a decrease in the absorbance at 517 nm. The DPPH radical scavenging activity of the title hydrazide vh0 and hydrazide–hydrazones vh1-4 was determined in 1 mg/mL concentration with Trolox applied as a standard.
The radical scavenging activities of the title compounds were examined with a DPPH (2,2- diphenyl-1-picrylhydrazyl) test. A solution of DPPH has an intense violet color and a UV absorption at 515 nm could be observed. The presence of an antioxidant leads to visible decolorization of the sample and the absorption could be measured. Here, the scavenging rate of the DPPH radical was carried out by the widely employed classical protocol of Brand-Williams et al.. A 1 mg/mL of the title compounds were reacted with methonol solution of the DPPH (1 mmol/L). Thereafter, the obtained mixture was left in a dark palce for 15 min. The absorbance was assessed at 517 nm. Three measurements were conducted for each sample and Trolox was used as a standard.

Question: For `CCOC(=O)c1cc(-c2ccc(Br)cc2)n(C(C(=O)N/N=C/c2ccc(OC)cc2OC)C(C)C)c1C` (stereo not drawn) [vh4], which “SI: hMAOB selectivity index = IC50(hMAO-A)/IC50(hMAO-B)” value (human recombinant MAOB) is on record?
Answer: Its value is over 1.

Question: And the IC50 (human recombinant MAOB)?
Answer: The IC50 was over 100 µM.

Question: And the IC50 (human recombinant MAOA)?
Answer: Its IC50 is over 100 µM.

Question: And the “IC50 (EC50) AChE” value (eeAChE)?
Answer: The value was “inactive”.

Question: And the IC50 (eeAChE)?
Answer: The IC50 was over 100 µM.

Question: For `CCOC(=O)c1cc(-c2ccc(Br)cc2)n(C(C(=O)N/N=C/c2ccc(OC)cc2)C(C)C)c1C` (stereo not drawn) [vh3], which ABTS radical-binding activity [1] is on record?
Answer: The ABTS radical-binding activity was 58.27%.

Question: And the “SI: hMAOB selectivity index = IC50(hMAO-A)/IC50(hMAO-B)” value (human recombinant MAOB)?
Answer: The value was over 1.

Question: What about the IC50 (human recombinant MAOB) of the same compound?
Answer: The IC50 was over 100 µM.

Question: What about the IC50 (human recombinant MAOA) of the same compound?
Answer: The IC50 was over 100 µM.

Question: What about the AChE inhibition (eeAChE) of the same compound?
Answer: Its AChE inhibition is “weak AChE blocking activity”.

Question: And the inhibition at 10 µM (eeAChE)?
Answer: The inhibition at 10 µM was 26%.

Question: And the IC50 (eeAChE)?
Answer: Its IC50 is 16.3 ± 2.15 µM.

Question: For `CC(C)NCC(O)COc1cccc2ccccc12` (stereo not drawn) [Propranolol HCl, propranolol hydrochloride, reference compound], which “PAMPA BBB −logPe” value ([2]; PAMPA, 4 h, 50 μM, pH 7.4) is on record?
Answer: Its value is 4.949 ± 0.003.

Question: What about the “PAMPA BBB −logPe Literature” value [3] of the same compound?
Answer: Its value is 3.7.

Question: What does the source list for `CCOC(=O)c1cc(-c2ccc(Br)cc2)n(C(C(=O)N/N=C/c2ccc(Cl)cc2)C(C)C)c1C` (stereo not drawn) [vh1]?
Answer: ABTS radical-binding activity [1]: 73.67%; SI: hMAOB selectivity index = IC50(hMAO-A)/IC50(hMAO-B) (human recombinant MAOB): >134; hMAOB inhibition (decrease of hMAOB activity vs control) (human recombinant MAOB): moderate activity; IC50 (human recombinant MAOB): 0.744 ± 0.18 µM; IC50 (human recombinant MAOA): > 100 µM; inhibition at 10 µM (eeAChE): 19%; IC50 (eeAChE): 18.8 ± 0.91 µM

Question: Which “DPPH radical scavenging activity” value [4] does the source give for `CCOC(=O)c1cc(-c2ccc(Br)cc2)n(C(C(=O)NN)C(C)C)c1C` (stereo not drawn) [vh0] here?
Answer: The value was 76.10%.

Question: And the ABTS radical-binding activity [1]?
Answer: Its ABTS radical-binding activity is 99.40%.

Question: And the “SI: hMAOB selectivity index = IC50(hMAO-A)/IC50(hMAO-B)” value (human recombinant MAOB)?
Answer: Its value is over 150.

Question: And the “hMAOB inhibition (decrease of hMAOB activity vs control)” value (human recombinant MAOB)?
Answer: The value was 30%.

Question: And the IC50 (human recombinant MAOB)?
Answer: The IC50 was 0.665 ± 0.2 µM.

Question: What about the IC50 (human recombinant MAOA) of the same compound?
Answer: Its IC50 is over 100 µM.

Question: What about the inhibition at 10 µM (eeAChE) of the same compound?
Answer: The inhibition at 10 µM was 62%.

Question: And the IC50 (eeAChE)?
Answer: The IC50 was 4.15 ± 1.31 µM.

Question: What about the BBB permeability class ([2]; PAMPA-BBB) of the same compound?
Answer: The BBB permeability class was “medium (When 6 < –logPe < 5 the molecule is identified with a medium permeability)”.

Question: What about the “PAMPA BBB −logPe” value ([2]; pH 7.4, 50 μM, 4 h at 25 °C) of the same compound?
Answer: Its value is 5.451 and 5.451 ± 0.005.

Question: For `Cc1c(C)c2c(c(C)c1O)CCC(C)(C(=O)O)O2` (stereo not drawn) [Trolox, reference compound], which “DPPH radical scavenging activity” value [4] is on record?
Answer: The value was 90.07%.

Question: What about the ABTS radical-binding activity [1] of the same compound?
Answer: The ABTS radical-binding activity was 100%.

Question: What does the source list for `CCOC(=O)c1cc(-c2ccc(Br)cc2)n(C(C(=O)N/N=C/c2cccc(F)c2)C(C)C)c1C` (stereo not drawn) [vh2]?
Answer: SI: hMAOB selectivity index = IC50(hMAO-A)/IC50(hMAO-B) (human recombinant MAOB): >1; IC50 (human recombinant MAOB): > 100 µM; IC50 (human recombinant MAOA): > 100 µM; AChE inhibition (eeAChE): weak AChE blocking activity; IC50 (EC50) AChE (eeAChE): inactive; IC50 (eeAChE): > 100 µM
